These results are taken from US9533965B2, “2-arylbenzofuran-7-formamide compounds, preparation method and use thereof” (SHANGHAI INSTITUTE OF MATERIA MEDICA, CHINESE ACADEMY OF …, priority 2012, dated 2017).

The target in one series is PARP1 (Homo sapiens, UniProt P09874). The series is described as follows: PARP1 enzymatic inhibition at molecular levels (ELISA). To be noted: ELISA IC50, PARP1 enzyme, molecular level.
Another series deals with wild type cell line V79. The series is described as follows: In vitro cell proliferation inhibition (MTT), V79 cells. It is filed as cell-based, Chinese hamster. To be noted: Cricetulus griseus, read-out: V79 cell IC50.
Series [1] relates to Chinese hamster lung fibroblast cell line VC8 (BRCA2−/−). The series is described as follows: In vitro cell proliferation inhibition (MTT), VC8 cells. It is filed as cell-based. To be noted: read-out: VC8 cell IC50.
The conditions of series [2]: compound during phase II clinical trials; cited from earlier work.
Where [3] appears, read: Cricetulus griseus, V-C8, 72 h, MTT, 72 h, VC8 (BRCA2−/−).

“And” between values parts separate entries of the source, which are not always exact repeats. Identical values can stand only once. Like-named read-outs stand apart in the source and are kept apart here.

Chain of PARP1 (P09874 whole entry): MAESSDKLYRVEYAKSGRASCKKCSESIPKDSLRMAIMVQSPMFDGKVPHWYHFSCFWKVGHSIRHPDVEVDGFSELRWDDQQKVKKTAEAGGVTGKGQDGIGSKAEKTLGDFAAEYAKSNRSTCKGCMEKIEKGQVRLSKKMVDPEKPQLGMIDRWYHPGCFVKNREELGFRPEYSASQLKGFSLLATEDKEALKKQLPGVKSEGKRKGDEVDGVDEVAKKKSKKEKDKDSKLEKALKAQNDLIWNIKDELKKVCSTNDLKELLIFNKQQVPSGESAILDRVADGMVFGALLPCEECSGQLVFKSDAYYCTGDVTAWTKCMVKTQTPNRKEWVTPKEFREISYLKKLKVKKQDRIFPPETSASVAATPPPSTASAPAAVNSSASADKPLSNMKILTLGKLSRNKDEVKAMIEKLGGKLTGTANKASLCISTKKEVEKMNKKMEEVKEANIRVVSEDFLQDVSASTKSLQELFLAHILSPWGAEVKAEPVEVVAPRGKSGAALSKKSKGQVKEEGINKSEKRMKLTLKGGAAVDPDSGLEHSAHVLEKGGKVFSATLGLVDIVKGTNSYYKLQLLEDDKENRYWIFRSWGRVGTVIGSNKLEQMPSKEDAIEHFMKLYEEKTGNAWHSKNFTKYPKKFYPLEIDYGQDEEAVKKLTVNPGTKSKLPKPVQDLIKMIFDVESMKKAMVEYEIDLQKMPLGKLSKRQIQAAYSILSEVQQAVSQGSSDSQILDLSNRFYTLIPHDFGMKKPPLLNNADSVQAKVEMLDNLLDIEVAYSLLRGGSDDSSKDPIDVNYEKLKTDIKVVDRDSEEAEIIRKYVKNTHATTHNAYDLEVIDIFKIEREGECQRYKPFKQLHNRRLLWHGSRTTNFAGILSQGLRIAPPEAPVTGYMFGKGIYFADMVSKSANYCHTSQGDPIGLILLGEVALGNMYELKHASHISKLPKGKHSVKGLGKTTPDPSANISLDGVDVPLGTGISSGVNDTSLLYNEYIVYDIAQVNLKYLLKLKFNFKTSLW

For `CN(C)Cc1ccc(-c2oc3c(C(N)=O)cc(F)cc3c2Cl)cc1` [compound 7a, 3-chloro-5-fluoro-2-{4-[(dimethylamino)methyl]phenyl}benzofuran-7-carboxamide], it took 9250 nM to reach half-maximal inhibition at PARP1 (IC50).
On to `CNCc1ccc(-c2cc3cc(F)cc(C(N)=O)c3o2)cn1` [compound 5c, 5-fluoro-2-{6-[(methylamino)methyl]-3-pyridyl}benzofuran-7-carboxamide], for which the IC50 at PARP1 was 37 nM and 34.2 nM and 72 nM; in the series with wild type cell line V79 (MTT, 72 h, wild type V79) it was over 10 µM.
Regarding `CC(C)NCc1ccc(-c2cc3cc(F)cc(C(N)=O)c3o2)cc1` [compound 5o, 5-fluoro-2-[4-(isopropylaminomethyl)phenyl]benzofuran-7-carboxamide], the half-inhibitory concentration (IC50) on PARP1 was 32 nM and 18.8 nM and 25 nM; in the series on wild type cell line V79 (MTT, 72 h, wild type V79), over 10 µM; in series [1] (setting [3]) it was 1090 nM; in series [1] (MTT, 72 h, VC8 (BRCA2−/−)), 941 nM.
On to `CN1CCCN(Cc2ccc(-c3cc4cc(F)cc(C(N)=O)c4o3)cc2)CC1` [compound 5i, 5-fluoro-2-{4-[(4-methyl-1-homopiperazino)methyl]phenyl}benzofuran-7-carboxamide], for which the IC50 is 104 nM and 101 nM and 207 nM against PARP1; over 10 µM in the series with wild type cell line V79 (MTT, 72 h, wild type V79).
Turning to `NC(=O)c1cc(F)cc2cc(-c3ccc(CN4CCCC4)cc3)oc12` [5f, 5-fluoro-2-{4-[(pyrrolidin-1-yl)methyl]phenyl}benzofuran-7-carboxamide], the IC50 is over 10 µM in the series on wild type cell line V79 (MTT, 72 h, wild type V79); 3360 nM in series [1] (setting [3]); 2620 nM in series [1] (MTT, 72 h, VC8 (BRCA2−/−)).
Turning to `NC(=O)c1cc(F)cc2cc(-c3ccc(CN4CCOCC4)cc3)oc12` [compound 5j, 5-fluoro-2-{4-[(1-morpholinyl)methyl]phenyl}benzofuran-7-carboxamide], the IC50 in the series on wild type cell line V79 (MTT, 72 h, wild type V79) is over 10 µM.
Consider `CNCc1ccc(-c2cc3cc(F)cc(C(N)=O)c3o2)cc1F` [compound 5e, 5-fluoro-2-{4-[(methylamino)methyl]-3-fluorophenyl}benzofuran-7-carboxamide], for which the IC50 was 14.8 nM and 20.8 nM and 74 nM against PARP1; over 10 µM in the series on wild type cell line V79 (MTT, 72 h, wild type V79); 2080 nM in series [1] (setting [3]); 1510 nM in series [1] (MTT, 72 h, VC8 (BRCA2−/−)).
Consider `CNCc1ccc(-c2cc3cc(F)cc(C(N)=O)c3o2)c(F)c1` [compound 5p, 5-fluoro-2-{4-[(methylamino)methyl]-2-fluorophenyl}benzofuran-7-carboxamide], for which the IC50 on PARP1 is 22 nM and 8.9 nM and 40 nM; in the series on wild type cell line V79 (MTT, 72 h, wild type V79), over 10 µM; in series [1] (setting [3]), 1360 nM; in series [1] (MTT, 72 h, VC8 (BRCA2−/−)), 1620 nM.
Regarding `NC(=O)c1cc(F)cc2cc(-c3ccc(CNC4CCNCC4)cc3)oc12` [compound 5l, 5-fluoro-2-{4-[(4-piperidyl)aminomethyl]phenyl}-benzofuran-7-carboxamide], the concentration for half-maximal inhibition (IC50) was 182 nM and 107 nM and 393 nM on PARP1; over 10 µM with wild type cell line V79 (MTT, 72 h, wild type V79); 8310 nM in series [1] (setting [3]); 8220 nM in series [1] (MTT, 72 h, VC8 (BRCA2−/−)).
For `NC(=O)c1cc(F)cc2cc(-c3ccc(CNC4CC4)cc3)oc12` [compound 5n, 5-fluoro-2-[4-(cyclopropylaminomethyl)phenyl]benzofuran-7-carboxamide], the IC50 against PARP1 was 18 nM and 31 nM and 73 nM; in the series with wild type cell line V79 (MTT, 72 h, wild type V79) it was over 10 µM.
Regarding `NC(=O)c1cc(F)cc2cc(-c3ccc(CN4CCSCC4)cc3)oc12` [compound 5k, 5-fluoro-2-{4-[(thiomorpholino)methyl]phenyl}benzofuran-7-carboxamide], the half-inhibitory concentration (IC50) was 1060 nM and 2060 nM and 1520 nM on PARP1; over 10 µM with wild type cell line V79 (MTT, 72 h, wild type V79); over 10000 nM in series [1] (setting [3]).
As to `O=C(c1cc(Cc2n[nH]c(=O)c3ccccc23)ccc1F)N1CCN(C(=O)C2CC2)CC1` [AZD2281, Olaparib, reference compound], the IC50 with wild type cell line V79 (V79, 72 h) was over 10 µM; in series [1] (Cricetulus griseus, V-C8, 72 h), 820 ± 330 nM. Also, the “oral bioavailability of rats” value in series [2] is recorded as 11.1%.
With `NC(=O)c1cc(F)cc2cc(-c3ccc(CN[C@@H]4CCOC4)cc3)oc12` [compound 5m, (R)-5-fluoro-2-{4-[(3-tetrahydrofurylamino)methyl]phenyl}benzofuran-7-carboxamide], the half-maximal inhibitory concentration (IC50) on PARP1 was 49 nM and 9.5 nM and 17 nM; with wild type cell line V79 (MTT, 72 h, wild type V79) it was over 10 µM; in series [1] (setting [3]) it was 1150 nM; in series [1] (MTT, 72 h, VC8 (BRCA2−/−)) it was 1180 nM.
On to `CN1CCN(Cc2ccc(-c3cc4cc(F)cc(C(N)=O)c4o3)cc2)CC1` [compound 5g, 5-fluoro-2-{4-[(4-methyl-1-piperazino)methyl]phenyl}benzofuran-7-carboxamide], for which the IC50 against PARP1 was 83 nM and 105 nM and 187 nM; in the series on wild type cell line V79 (MTT, 72 h, wild type V79) it was over 10 µM; in series [1] (setting [3]) it was 2080 nM; in series [1] (MTT, 72 h, VC8 (BRCA2−/−)), 2140 nM.
As to `NC(=O)c1cc(F)cc2cc(-c3ccc(CN4CCCCC4)cc3)oc12` [compound 5h, 5-fluoro-2-{4-[(piperidin-1-yl)methyl]phenyl}benzofuran-7-carboxamide], the IC50 in the series with wild type cell line V79 (MTT, 72 h, wild type V79) was over 10 µM; in series [1] (setting [3]), 2600 nM; in series [1] (MTT, 72 h, VC8 (BRCA2−/−)) it was 2010 nM.
Turning to `CN(C)Cc1ccc(-c2cc3cc(F)cc(C(N)=O)c3o2)cc1` [compound 5a, 5-fluoro-2-{4-[(dimethylamino)methyl]phenyl}benzofuran-7-carboxamide], the IC50 against PARP1 is 11.8 ± 8.9 nM; with wild type cell line V79 (MTT, 72 h, wild type V79), over 10 µM; in series [1] (setting [3]), 750 ± 100 nM.
As for `CNCc1ccc(-c2cc3cc(F)cc(C(N)=O)c3o2)nc1` [compound 5d, 5-fluoro-2-{5-[(methylamino)methyl]-2-pyridyl}benzofuran-7-carboxamide], the 50% inhibitory concentration (IC50) was 23 nM and 27.9 nM and 58 nM against PARP1; over 10 µM in the series with wild type cell line V79 (MTT, 72 h, wild type V79); 3270 nM in series [1] (setting [3]); 1740 nM in series [1] (MTT, 72 h, VC8 (BRCA2−/−)).
